Where two headings read alike, the source gives them in different places. Where a SMILES comes first, the peptide text is derived from it. [ ]: non-standard residue; d: D form. Orn = NCCC[C@H](N)C(=O)O
Experiments:
P. aeruginosa H187 = format: cell-based, Pseudomonas aeruginosa; settings: for Antibiotic activity (Table 11, ring analogs): P. aeruginosa H187, unit from Table 10
How it was run: (§1)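 Liquid-broth microdilution: overnight LB cultures at 37 °C, diluted to a final inoculum of 5×10^5 CFU/mL with serial peptide dilutions, incubated overnight at 37 °C. MIC (μg/ml) is the lowest concentration that inhibited growth. Therapeutic index is the concentration giving complete hemolysis at 4 h divided by the MIC.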

E. coli UB1005 = format: cell-based, Escherichia coli; settings: for Antibiotic activity (Table 11, ring analogs): E. coli UB1005, unit from Table 10
How it was run: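 Growth inhibition was scored after overnight culture at 37 °C in LB with peptide serial dilutions (inoculum 5×10^5 CFU/mL); MICs were the lowest inhibitory concentrations. Test strains were E. coli UB1005 (wild type), C. xerosis (environmental), and C. albicans and S. epidermidis (clinical isolates).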

yeast = test: Antibiotic activity, yeast; format: cell-based; settings: average activity calculated from Table II
Description: (§2) The following bacterial strains were utilized: Escherichia coli UB1005 (wt) and its antibiotic supersusceptible derivative DC2 (Clark, 1984); Excherichia coli SC9251 and its polymixin B rasistant mutant pmrA SC9252 (Peterson, et al., 1987) Pseudomonas aeruginosa H187 (wt) (Angus, et al., 1987) and its antibiotic-sensitive derivative H188 (Zimmerman, W, Antimicrob. Agents Chemother. 18: 94-100, 1980); methicillin sensitive Staphylococcus aureus K147 (Kreiswirth, et al., 1983); Staphylococcus aureus SAP0017, a methicillin resistant clinical isolate from Dr. A. Chow (University of British Columia); Bacillus subtilis, an environmental wt lab strain. Enterococcus faecalis are ATCC 29212 cells and Staphylococcus epidermidis was a clinical isolate from Dr. D. Speert (University of British Columbia). Antifungal activity was tested using a clinical lab isolate of Candida albicans. Salmonella typhinurium C57 and C610 (Fields, P.I., et al., Science 243: 1059-1062 (1989) Corynebacterium xerosis was an environmental isolate (University of British Columbia).
(§3) It is now apparent that agar-based assays severely underestimate antifungal activity as well as activity against gram negative microorganisms (Kondejewski, et al., 1996). Consequently, in the studies reported herein, a liquid-broth method was used to measure the antibiotic properties of the peptides. […] Briefly, cells were grown overnight at 37° C. in LB and diluted in the same medium. Serial dilutions of antibiotics were added to the microtitre plates in a volume of 100 μL followed by 10 μL of bacteria to give a final inoculum of 5×10^5 CFU/mL. Plates were incubated at 37° C. overnight and MICs determined as the lowest antibiotic concentration that inhibited growth.
(§4) The results from antimicrobial and hemolytic assays are combined to provide a “Therapeutic Index” (TI) for each peptide with respect to individual microorganisms. As reported herein, the TI is calculated as the hemolytic activity divided by the antimicrobial activity. The TI thus is a measure of specificity of the particular peptide for microbial membranes as opposed to human blood cell membranes. In the present studies, antimicrobial activities are reported as minimum inhibitory concentrations (MIC)—the lowest concentration of peptide (μg/ml) found to inhibit growth of the particular microbe. Hemolytic activity is reported as the concentration of peptide that effected complete lysis of blood cells after four hours. Thus, in the context of the present invention high TI values indicate microbial specificity and relative lack of toxicity.

[1] = system: gram negative microorganisms; format: cell-based; settings: for Antibiotic activity, gram-negative: average activity calculated from Table II
Description: as §2, §3, §4

[2] = system: gram positive microorganisms; format: cell-based; settings: average activity calculated from Table II
Description: as §2, §3, §4

human erythrocytes = test: Hemolytic activity; format: cell-based
Experimental: Serial dilutions of the peptides in saline were prepared in round bottom microtitre plates using 100 μL volumes. Red blood cells were diluted with saline to 1/25 packed volume of cells and 50 μL added to each well. Plates were incubated with rocking at 37° C., and the concentration required for complete lysis determined visually after 4 h.

P. aeruginosa H188 = format: cell-based, Pseudomonas aeruginosa; settings: for Antibiotic activity (Table 11, ring analogs): P. aeruginosa H188, unit from Table 10
How it was run: (§5)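 Antimicrobial activity is measured by a liquid-broth assay in LB at 37 °C overnight, starting from 5×10^5 CFU/mL. Values are minimal inhibitory concentrations, i.e. the lowest concentration that stops growth.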

E. coli DC2 = format: cell-based, Escherichia coli; settings: for Antibiotic activity (Table 11, ring analogs): E. coli DC2, unit from Table 10
How it was run: as §1

E. coli SC9251 = test: MIC, liquid-broth microtitre dilution; format: cell-based, Escherichia coli; settings: unit from Table 10
Description: as §2, §3

E. coli SC9252 = test: MIC, liquid-broth microtitre dilution; format: cell-based, Escherichia coli; settings: unit from Table 10
Description: as §2, §3

[3] = Displacement of dansyl-polymyxin from LPS; format: binding, P. aeruginosa
How it was run: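 Peptides titrated into 3 μg/mL P. aeruginosa LPS with 2.5 μM dansyl-polymyxin (~90% site saturation) in 5 mM sodium HEPES, pH 7.0; fluorescence decrease recorded. I50 (50% probe displacement) taken from the x-intercept of a double-reciprocal plot of percent inhibition versus inhibitor concentration.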

C. Albicans = format: cell-based, Candida albicans; settings: C. Albicans
How it was run: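 Liquid-broth rather than agar method. Organisms: clinical isolates (C. albicans, S. epidermidis), environmental C. xerosis, wild-type E. coli UB1005.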

S. typhinurium C587 = format: cell-based, Salmonella typhinurium
How it was run: as §5

S. typhinurium C610 = format: cell-based, Salmonella typhinurium
How it was run: as §5

[4] = Table 10, read-out: LPS binding activity: peptide concentration to displace 50% of dansyl-polymyxin from LPS

Row | Structure (SMILES) | Antibiotic activity (Table 11, ring analogs) (P. aeruginosa H187) [μg/ml] | Antibiotic activity (Table 11, ring analogs) (E. coli UB1005) [μg/ml] | Antibiotic activity, yeast (yeast) [µg/mL] | Antibiotic activity, gram-negative [1] [µg/mL] | Antibiotic activity, gram-positive [2] [µg/mL] | Hemolytic activity (human erythrocytes) [µg/mL] | Antibiotic activity (Table 11, ring analogs) (P. aeruginosa H188) [μg/ml] | Antibiotic activity (Table 11, ring analogs) (E. coli DC2) [μg/ml] | Antibiotic activity (Table 11, ring analogs) (E. coli SC9251) [μg/ml] | Antibiotic activity (Table 11, ring analogs) (E. coli SC9252) [μg/ml] | IC50 [3, 4] [µM] | other results
1 | CC(C)C[C@@H]1NC(=O)[C@H](CCCN)NC(=O)[C@H](C(C)C)NC(=O)[C@@H]2CCCN2C(=O)[C@@H](Cc2ccccc2)NC(=O)[C@H](CC(C)C)NC(=O)[C@H](CCCN)NC(=O)[C@H](C(C)C)NC(=O)[C@H](CCCN)NC(=O)[C@@H]2CCCN2C(=O)[C@@H](Cc2ccccc2)NC(=O)[C@H](CCCN)NC1=O [GS12FO, FPVOLOFPOVOL] (cyclo(L[Orn][dF]P[Orn]V[Orn]L[dF]PV[Orn])) | 50 | 22 | 16 | 16 | 120 | 160 | 5 | 5 | 6 | 9 | 105 | 
2 | CC(C)C[C@@H]1NC(=O)[C@H](CCCCN)NC(=O)[C@H](C(C)C)NC(=O)[C@@H]2CCCN2C(=O)[C@@H](Cc2ccc(O)cc2)NC(=O)[C@H](CC(C)C)NC(=O)[C@H](CCCCN)NC(=O)[C@H](C(C)C)NC(=O)[C@H](CCCCN)NC(=O)[C@@H]2CCCN2C(=O)[C@@H](Cc2ccc(O)cc2)NC(=O)[C@H](CCCCN)NC1=O [GS12] | 75 | 25 | 42 | 32 | 240 | 250 | 10 | 11 | 42 | 30 | 46 | Increase in LPS binding activity in comparison to shorter peptides ([3]; addition of two positive charges): approximately 6 fold
3 | CC(C)C[C@@H]1NC(=O)[C@H](CCCCN)NC(=O)[C@H](C(C)C)NC(=O)[C@@H]2CCCN2C(=O)[C@@H](Cc2ccccc2)NC(=O)[C@H](CC(C)C)NC(=O)[C@H](CCCCN)NC(=O)[C@H](C(C)C)NC(=O)[C@H](CCCCN)NC(=O)[C@@H]2CCCN2C(=O)[C@@H](Cc2ccccc2)NC(=O)[C@H](CCCCN)NC1=O [GS12F] | 38 | 17 | 13 | 16 | 110 | 400 | 8 | 9 | 11 | 14 | 127 | 
4 | CC(C)C[C@@H]1NC(=O)[C@H](CCCCN)NC(=O)[C@@H]2CCCN2C(=O)[C@@H](Cc2ccc(O)cc2)NC(=O)[C@H](CCCCN)NC(=O)[C@H](C(C)C)NC(=O)[C@H](CCCCN)NC(=O)[C@H](CC(C)C)NC(=O)[C@@H]2CCCN2C(=O)[C@@H](Cc2ccc(O)cc2)NC(=O)[C@H](C(C)C)NC(=O)[C@H](CCCCN)NC1=O [GS12LV] | 58 | 21 | 50 | 25 | 240 | 92 | 10 | 14 | 22 | 25 | 33 | 
5 | CC(C)C[C@@H]1NC(=O)[C@H](CCCN)NC(=O)[C@H](CC(C)C)NC(=O)[C@@H]2CCCN2C(=O)[C@@H](Cc2ccccc2)NC(=O)[C@H](CC(C)C)NC(=O)[C@H](CCCN)NC(=O)[C@H](CC(C)C)NC(=O)[C@H](CCCN)NC(=O)[C@@H]2CCCN2C(=O)[C@@H](Cc2ccccc2)NC(=O)[C@H](CCCN)NC1=O [GS12FO/LL, FPLOLOFPOLOL] (cyclo(L[Orn]L[Orn][dF]P[Orn]L[Orn]L[dF]P)) | 63 | 16 | 16 | 18 | 42 | 170 | 8 | 5 | 8 | 9 | 44 | 
6 | CC(C)C[C@@H]1NC(=O)[C@H](CCCN)NC(=O)[C@H](C(C)C)NC(=O)[C@@H]2CCCN2C(=O)[C@@H](Cc2ccccc2)NC(=O)[C@H](CC(C)C)NC(=O)[C@H](CCCN)NC(=O)[C@H](C(C)C)NC(=O)[C@@H]2CCCN2C(=O)[C@@H](Cc2ccccc2)NC1=O [GS, cyclo(Val-Orn-Leu-D-Phe-Pro)2, reference compound] (cyclo(V[Orn]L[dF]PV[Orn]L[dF]P)) | 25 | 19 |  |  |  |  | 16 | 9 | 13 | 5 |  | Minimum Inhibitory Concentration (activity) (P. aeruginosa H187; H187): 25 µg/mL; Minimum Inhibitory Concentration (activity) (E. coli UB1005; UB1005): 9 µg/mL; MIC against gram-negative organisms, particularly E. coli and P. aeruginosa [1]: 3 to 12.5 µg/mL; Hemolytic activity: peptide concentration for 100% lysis of human erythrocytes (human erythrocytes): 12.5 µg/mL; Minimum Inhibitory Concentration (activity) (P. aeruginosa H188; H188): 6.2 µg/mL; Minimum Inhibitory Concentration (activity) (E. coli DC2; DC2): 3.1 µg/mL; IC50 ([3]; read-out: LPS binding affinity: peptide concentration to displace 50% of dansyl-polymyxin B from LPS, Tables 1, 4, 7): 295 µM; Minimum Inhibitory Concentration (activity) (C. Albicans): 6.2 µg/mL; Minimum Inhibitory Concentration (activity) (S. typhinurium C587): 18 µg/mL; Minimum Inhibitory Concentration (activity) (S. typhinurium C610): 9 µg/mL

Reference: patent US6358921B1, “Antimicrobial peptide compositions and method” (priority 1996, dated 2002)
